From the NIST ThermoML archive (doi:10.1021/acs.jced.5b00367)
“And” between values parts separate entries of the source, which are not always exact repeats. Equal values may be shown once. Numbers after ± are expanded uncertainties.

Test: wn = mass fraction of the nth substance listed
Details: 101 kPa, Liquid, Alternating current cell with electrodes, w2 = 0.01

CCCCCCCCCCCC[N+](C)(C)C.[Br-] [dodecyltrimethylammonium bromide] + O
Details | electrical conductivity
279.15 K | 0.186 ± 0.074 S/m
279.25 K | 0.186 ± 0.075 S/m
279.35 K | 0.186 ± 0.075 S/m
279.45 K | 0.186 ± 0.074 S/m
279.55 K | 0.186 ± 0.074 S/m
279.65 K | 0.186 ± 0.074 S/m
279.85 K | 0.186 ± 0.074 S/m
279.95 K | 0.186 ± 0.075 S/m
280.05 K | 0.186 ± 0.074 S/m
280.15 K | 0.186 ± 0.074 S/m
280.25 K | 0.186 ± 0.074 S/m
280.35 K | 0.186 ± 0.074 S/m
280.45 K | 0.186 ± 0.074 S/m
280.55 K | 0.186 ± 0.074 S/m
280.65 K | 0.186 ± 0.074 S/m
280.75 K | 0.185 ± 0.074 S/m
280.85 K | 0.185 ± 0.074 S/m
280.95 K | 0.185 ± 0.074 S/m
281.05 K | 0.185 ± 0.074 S/m
281.15 K | 0.185 ± 0.074 S/m
281.25 K | 0.185 ± 0.074 S/m
281.35 K | 0.185 ± 0.074 S/m
281.45 K | 0.185 ± 0.074 S/m
281.55 K | 0.185 ± 0.074 S/m
281.65 K | 0.185 ± 0.074 S/m
281.85 K | 0.185 ± 0.074 S/m
281.95 K | 0.185 ± 0.074 S/m
282.05 K | 0.185 ± 0.074 S/m
282.15 K | 0.185 ± 0.074 S/m
282.25 K | 0.185 ± 0.074 S/m
282.35 K | 0.184 ± 0.074 S/m
282.45 K | 0.184 ± 0.074 S/m
282.55 K | 0.184 ± 0.074 S/m
282.65 K | 0.184 ± 0.074 S/m
282.75 K | 0.184 ± 0.074 S/m
282.85 K | 0.184 ± 0.074 S/m
282.95 K | 0.184 ± 0.074 S/m
283.05 K | 0.184 ± 0.074 S/m
283.15 K | 0.184 ± 0.074 S/m
283.25 K | 0.184 ± 0.074 S/m
283.35 K | 0.184 ± 0.074 S/m
283.45 K | 0.184 ± 0.073 S/m
283.55 K | 0.184 ± 0.074 S/m
283.65 K | 0.184 ± 0.073 S/m
283.75 K | 0.184 ± 0.073 S/m
283.85 K | 0.184 ± 0.073 S/m
283.95 K | 0.184 ± 0.073 S/m
284.05 K | 0.183 S/m and 0.184 S/m
284.15 K | 0.184 ± 0.073 S/m
284.25 K | 0.183 ± 0.073 S/m
284.35 K | 0.183 ± 0.073 S/m
284.45 K | 0.183 ± 0.073 S/m
284.55 K | 0.183 ± 0.073 S/m
284.65 K | 0.183 ± 0.073 S/m
284.75 K | 0.183 ± 0.073 S/m
284.85 K | 0.183 ± 0.073 S/m
284.95 K | 0.183 ± 0.073 S/m
285.05 K | 0.183 ± 0.073 S/m
285.15 K | 0.183 ± 0.073 S/m
288.05 K | 0.182 ± 0.073 S/m
288.15 K | 0.182 ± 0.073 S/m
288.25 K | 0.182 ± 0.073 S/m
288.35 K | 0.182 ± 0.073 S/m
288.45 K | 0.182 ± 0.073 S/m
288.55 K | 0.182 ± 0.073 S/m
288.65 K | 0.182 ± 0.073 S/m
288.75 K | 0.182 ± 0.073 S/m
288.85 K | 0.182 ± 0.073 S/m
288.95 K | 0.182 ± 0.073 S/m
289.85 K | 0.183 ± 0.073 S/m
289.95 K | 0.183 ± 0.073 S/m
290.05 K | 0.183 ± 0.073 S/m
290.15 K | 0.183 ± 0.073 S/m
290.25 K | 0.183 ± 0.073 S/m
290.35 K | 0.183 ± 0.073 S/m
290.45 K | 0.183 ± 0.073 S/m
290.55 K | 0.183 ± 0.073 S/m
290.65 K | 0.183 ± 0.073 S/m
290.75 K | 0.183 ± 0.073 S/m
290.85 K | 0.183 ± 0.073 S/m
290.95 K | 0.183 ± 0.073 S/m
291.05 K | 0.183 ± 0.073 S/m
291.15 K | 0.183 ± 0.073 S/m
291.25 K | 0.183 ± 0.073 S/m
291.35 K | 0.183 ± 0.073 S/m
291.45 K | 0.183 ± 0.073 S/m
291.55 K | 0.183 ± 0.073 S/m
291.65 K | 0.183 ± 0.073 S/m
291.75 K | 0.183 ± 0.073 S/m
291.85 K | 0.183 ± 0.073 S/m
292.15 K | 0.183 ± 0.073 S/m
292.25 K | 0.183 ± 0.073 S/m
292.65 K | 0.183 ± 0.073 S/m
292.75 K | 0.183 ± 0.073 S/m
292.85 K | 0.183 ± 0.073 S/m
292.95 K | 0.184 ± 0.073 S/m
293.05 K | 0.184 ± 0.073 S/m
293.15 K | 0.184 ± 0.073 S/m
293.25 K | 0.184 ± 0.074 S/m
294.25 K | 0.184 ± 0.074 S/m
294.35 K | 0.184 ± 0.074 S/m
294.45 K | 0.184 ± 0.074 S/m
294.55 K | 0.184 ± 0.074 S/m
294.75 K | 0.184 ± 0.074 S/m
294.85 K | 0.185 ± 0.074 S/m
294.95 K | 0.185 ± 0.074 S/m
295.15 K | 0.185 ± 0.074 S/m
295.25 K | 0.185 ± 0.074 S/m
295.45 K | 0.185 ± 0.074 S/m
295.65 K | 0.185 ± 0.074 S/m
295.75 K | 0.185 ± 0.074 S/m
296.05 K | 0.185 ± 0.074 S/m
296.15 K | 0.185 ± 0.074 S/m
296.55 K | 0.185 ± 0.074 S/m
296.85 K | 0.186 ± 0.074 S/m
297.05 K | 0.186 ± 0.074 S/m
297.25 K | 0.186 ± 0.074 S/m
297.45 K | 0.186 ± 0.074 S/m
297.65 K | 0.186 ± 0.074 S/m
297.85 K | 0.186 ± 0.075 S/m
298.15 K | 0.186 ± 0.075 S/m
298.65 K | 0.187 ± 0.075 S/m
298.85 K | 0.187 ± 0.075 S/m
299.05 K | 0.187 ± 0.075 S/m
299.25 K | 0.188 ± 0.075 S/m
299.55 K | 0.188 ± 0.075 S/m
299.75 K | 0.188 ± 0.075 S/m
299.85 K | 0.188 ± 0.075 S/m
300.05 K | 0.188 ± 0.075 S/m
300.25 K | 0.188 ± 0.075 S/m
300.45 K | 0.188 ± 0.075 S/m
300.75 K | 0.189 ± 0.075 S/m
301.05 K | 0.189 ± 0.076 S/m
301.55 K | 0.189 ± 0.076 S/m
301.75 K | 0.189 ± 0.076 S/m
301.95 K | 0.19 ± 0.076 S/m
302.25 K | 0.19 ± 0.076 S/m
302.55 K | 0.19 ± 0.076 S/m
302.75 K | 0.19 ± 0.076 S/m
302.95 K | 0.191 ± 0.076 S/m
303.25 K | 0.191 ± 0.076 S/m
303.65 K | 0.191 ± 0.076 S/m
303.85 K | 0.191 ± 0.076 S/m
304.15 K | 0.192 ± 0.077 S/m
305.45 K | 0.193 ± 0.077 S/m
306.15 K | 0.194 ± 0.078 S/m
306.45 K | 0.194 ± 0.078 S/m
306.75 K | 0.194 ± 0.078 S/m
307.05 K | 0.195 ± 0.078 S/m
307.85 K | 0.195 ± 0.078 S/m
308.15 K | 0.196 ± 0.078 S/m
308.45 K | 0.196 ± 0.079 S/m
308.75 K | 0.196 ± 0.079 S/m
309.35 K | 0.197 ± 0.079 S/m
309.55 K | 0.197 ± 0.079 S/m
309.85 K | 0.198 ± 0.079 S/m
310.05 K | 0.198 ± 0.079 S/m
310.35 K | 0.199 ± 0.079 S/m
310.65 K | 0.199 ± 0.08 S/m
310.95 K | 0.199 ± 0.08 S/m
311.35 K | 0.199 ± 0.08 S/m
